Read-outs that look alike come from different tables or passages of the source.
Columns and labels:
Type in all cases: binding
[1] = molecular target: T1, HeLa cell extract proteins (Homo sapiens, UniProt P02786)
T1 construct: endogenous in cells; host or cells: HeLa cell extract

[2] = molecular target: T2, HeLa cell extract proteins (Homo sapiens, UniProt Q15120)
T2 construct: endogenous in cells; host or cells: HeLa cell extract

[3] = molecular target: T3, HeLa cell extract proteins (Homo sapiens, UniProt Q16531)
T3 construct: endogenous in cells; host or cells: HeLa cell extract
T3 sequence (Q16531 whole entry): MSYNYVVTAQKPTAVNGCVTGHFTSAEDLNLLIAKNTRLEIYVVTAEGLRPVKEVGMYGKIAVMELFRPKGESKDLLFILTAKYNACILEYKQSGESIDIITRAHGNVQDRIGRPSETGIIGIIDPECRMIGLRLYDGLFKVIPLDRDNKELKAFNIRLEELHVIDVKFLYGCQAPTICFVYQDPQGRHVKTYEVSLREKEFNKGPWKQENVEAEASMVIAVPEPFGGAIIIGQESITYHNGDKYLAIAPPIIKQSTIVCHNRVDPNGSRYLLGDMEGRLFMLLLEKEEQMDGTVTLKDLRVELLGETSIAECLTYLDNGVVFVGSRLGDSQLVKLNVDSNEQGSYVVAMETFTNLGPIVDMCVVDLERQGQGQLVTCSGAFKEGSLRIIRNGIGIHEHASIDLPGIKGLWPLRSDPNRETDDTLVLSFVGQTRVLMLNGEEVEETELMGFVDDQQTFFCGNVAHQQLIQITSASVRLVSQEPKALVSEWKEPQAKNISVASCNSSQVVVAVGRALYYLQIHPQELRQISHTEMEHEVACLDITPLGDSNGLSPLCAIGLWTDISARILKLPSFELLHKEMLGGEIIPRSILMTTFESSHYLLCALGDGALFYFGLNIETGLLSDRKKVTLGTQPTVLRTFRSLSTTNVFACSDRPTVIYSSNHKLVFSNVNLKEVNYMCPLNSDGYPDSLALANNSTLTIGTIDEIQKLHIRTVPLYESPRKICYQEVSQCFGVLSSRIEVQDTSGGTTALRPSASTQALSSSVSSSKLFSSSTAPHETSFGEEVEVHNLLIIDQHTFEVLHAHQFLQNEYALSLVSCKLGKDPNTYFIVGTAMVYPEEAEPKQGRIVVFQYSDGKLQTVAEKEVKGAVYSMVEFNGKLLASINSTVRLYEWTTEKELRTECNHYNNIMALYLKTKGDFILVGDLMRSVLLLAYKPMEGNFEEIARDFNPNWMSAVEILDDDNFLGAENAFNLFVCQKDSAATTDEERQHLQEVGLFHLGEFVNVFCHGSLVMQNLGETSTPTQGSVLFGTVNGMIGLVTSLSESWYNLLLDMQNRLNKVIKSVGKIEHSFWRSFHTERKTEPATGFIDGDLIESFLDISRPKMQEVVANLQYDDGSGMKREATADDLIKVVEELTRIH

[4] = molecular target: T4, HeLa cell extract proteins (Homo sapiens, UniProt Q86X55)
T4 construct: endogenous in cells; host or cells: HeLa cell extract
T4 sequence (Q86X55 1-608): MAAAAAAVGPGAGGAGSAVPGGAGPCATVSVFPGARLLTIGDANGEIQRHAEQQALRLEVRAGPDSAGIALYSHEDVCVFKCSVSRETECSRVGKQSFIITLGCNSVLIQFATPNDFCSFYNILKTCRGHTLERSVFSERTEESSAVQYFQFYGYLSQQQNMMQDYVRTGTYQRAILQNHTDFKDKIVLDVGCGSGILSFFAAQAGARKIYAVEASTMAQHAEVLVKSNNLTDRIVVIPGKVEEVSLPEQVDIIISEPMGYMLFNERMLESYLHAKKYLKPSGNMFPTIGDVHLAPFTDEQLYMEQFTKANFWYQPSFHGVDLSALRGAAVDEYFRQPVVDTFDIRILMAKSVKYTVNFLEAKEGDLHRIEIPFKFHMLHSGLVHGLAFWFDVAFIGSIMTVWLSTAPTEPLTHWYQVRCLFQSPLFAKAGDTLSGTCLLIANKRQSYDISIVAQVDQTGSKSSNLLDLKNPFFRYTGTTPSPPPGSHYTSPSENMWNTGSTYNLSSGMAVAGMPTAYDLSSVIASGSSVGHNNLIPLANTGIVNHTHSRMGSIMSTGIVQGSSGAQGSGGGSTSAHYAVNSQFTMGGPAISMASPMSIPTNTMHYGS

[5] = molecular target: T5, HeLa cell extract proteins (Homo sapiens, UniProt Q93100)
T5 construct: endogenous in cells; host or cells: HeLa cell extract
T5 sequence (Q93100 1-1093): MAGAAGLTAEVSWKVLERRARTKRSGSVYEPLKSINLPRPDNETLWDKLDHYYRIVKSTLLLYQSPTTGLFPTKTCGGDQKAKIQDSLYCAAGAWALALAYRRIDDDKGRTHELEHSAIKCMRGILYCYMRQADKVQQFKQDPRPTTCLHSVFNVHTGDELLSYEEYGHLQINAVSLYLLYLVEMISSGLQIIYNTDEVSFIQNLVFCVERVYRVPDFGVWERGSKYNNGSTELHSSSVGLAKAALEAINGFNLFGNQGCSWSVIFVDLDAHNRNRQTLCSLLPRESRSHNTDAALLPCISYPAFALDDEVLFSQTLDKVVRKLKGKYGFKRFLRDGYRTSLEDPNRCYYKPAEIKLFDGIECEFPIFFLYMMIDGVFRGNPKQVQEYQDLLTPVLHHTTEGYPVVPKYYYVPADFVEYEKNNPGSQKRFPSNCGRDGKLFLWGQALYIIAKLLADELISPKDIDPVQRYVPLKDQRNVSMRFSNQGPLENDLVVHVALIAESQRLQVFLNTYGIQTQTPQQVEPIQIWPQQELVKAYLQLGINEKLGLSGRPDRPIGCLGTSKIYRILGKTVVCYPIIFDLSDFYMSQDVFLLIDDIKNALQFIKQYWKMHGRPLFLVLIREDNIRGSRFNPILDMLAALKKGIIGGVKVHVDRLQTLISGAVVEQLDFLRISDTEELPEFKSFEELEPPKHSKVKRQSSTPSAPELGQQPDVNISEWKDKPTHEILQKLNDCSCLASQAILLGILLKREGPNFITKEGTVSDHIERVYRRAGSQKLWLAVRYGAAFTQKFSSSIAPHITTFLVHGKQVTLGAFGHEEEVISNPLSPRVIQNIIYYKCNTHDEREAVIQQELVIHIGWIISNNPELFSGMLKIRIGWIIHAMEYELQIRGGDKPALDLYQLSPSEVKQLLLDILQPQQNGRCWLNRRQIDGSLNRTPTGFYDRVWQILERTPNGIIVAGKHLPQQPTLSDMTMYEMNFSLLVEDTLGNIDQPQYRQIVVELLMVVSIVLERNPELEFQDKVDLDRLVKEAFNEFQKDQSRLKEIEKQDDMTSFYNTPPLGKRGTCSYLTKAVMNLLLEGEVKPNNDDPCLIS

[6] = molecular target: T6, HeLa cell extract proteins (Homo sapiens, UniProt Q969U7)
T6 construct: endogenous in cells; host or cells: HeLa cell extract
T6 sequence (Q969U7 1-264): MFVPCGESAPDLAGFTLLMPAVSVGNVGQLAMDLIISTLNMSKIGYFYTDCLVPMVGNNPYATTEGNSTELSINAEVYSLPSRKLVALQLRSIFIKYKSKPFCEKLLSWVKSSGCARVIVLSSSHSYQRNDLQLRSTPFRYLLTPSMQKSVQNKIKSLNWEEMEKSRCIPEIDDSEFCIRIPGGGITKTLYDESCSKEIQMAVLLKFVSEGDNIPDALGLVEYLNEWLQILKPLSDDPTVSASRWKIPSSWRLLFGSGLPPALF

[7] = molecular target: T7, HeLa cell extract proteins (Homo sapiens, UniProt Q9UJP4)
T7 construct: endogenous in cells; host or cells: HeLa cell extract
T7 sequence (Q9UJP4 1-597): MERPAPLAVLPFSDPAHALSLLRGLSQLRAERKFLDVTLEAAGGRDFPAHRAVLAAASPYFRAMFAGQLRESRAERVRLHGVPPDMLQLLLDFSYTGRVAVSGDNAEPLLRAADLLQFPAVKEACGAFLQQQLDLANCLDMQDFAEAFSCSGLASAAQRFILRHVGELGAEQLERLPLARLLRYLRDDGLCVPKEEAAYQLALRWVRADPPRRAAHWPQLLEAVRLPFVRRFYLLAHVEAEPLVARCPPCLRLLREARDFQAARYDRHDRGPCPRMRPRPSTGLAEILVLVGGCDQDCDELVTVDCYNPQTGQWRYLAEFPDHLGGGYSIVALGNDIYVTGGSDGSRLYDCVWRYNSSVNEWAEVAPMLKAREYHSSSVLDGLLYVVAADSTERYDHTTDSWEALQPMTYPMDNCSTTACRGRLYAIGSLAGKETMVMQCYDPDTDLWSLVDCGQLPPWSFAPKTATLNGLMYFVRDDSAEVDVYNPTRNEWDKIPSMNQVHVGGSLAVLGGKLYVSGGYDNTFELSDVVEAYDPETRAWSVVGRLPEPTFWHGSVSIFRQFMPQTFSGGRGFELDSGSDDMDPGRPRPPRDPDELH

[8] = molecular target: T8, HeLa cell extract proteins (Homo sapiens, UniProt Q9Y6M0)
T8 construct: endogenous in cells; host or cells: HeLa cell extract
T8 sequence (Q9Y6M0 42-314): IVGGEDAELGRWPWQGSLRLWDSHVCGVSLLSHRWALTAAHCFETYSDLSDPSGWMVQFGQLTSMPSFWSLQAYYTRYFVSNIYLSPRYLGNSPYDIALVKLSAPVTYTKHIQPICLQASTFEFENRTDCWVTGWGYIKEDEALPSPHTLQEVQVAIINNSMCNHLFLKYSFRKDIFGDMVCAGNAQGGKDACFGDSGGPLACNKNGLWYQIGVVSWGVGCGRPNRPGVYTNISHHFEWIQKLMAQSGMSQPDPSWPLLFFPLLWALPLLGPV

T1 sequence (P02786 whole entry): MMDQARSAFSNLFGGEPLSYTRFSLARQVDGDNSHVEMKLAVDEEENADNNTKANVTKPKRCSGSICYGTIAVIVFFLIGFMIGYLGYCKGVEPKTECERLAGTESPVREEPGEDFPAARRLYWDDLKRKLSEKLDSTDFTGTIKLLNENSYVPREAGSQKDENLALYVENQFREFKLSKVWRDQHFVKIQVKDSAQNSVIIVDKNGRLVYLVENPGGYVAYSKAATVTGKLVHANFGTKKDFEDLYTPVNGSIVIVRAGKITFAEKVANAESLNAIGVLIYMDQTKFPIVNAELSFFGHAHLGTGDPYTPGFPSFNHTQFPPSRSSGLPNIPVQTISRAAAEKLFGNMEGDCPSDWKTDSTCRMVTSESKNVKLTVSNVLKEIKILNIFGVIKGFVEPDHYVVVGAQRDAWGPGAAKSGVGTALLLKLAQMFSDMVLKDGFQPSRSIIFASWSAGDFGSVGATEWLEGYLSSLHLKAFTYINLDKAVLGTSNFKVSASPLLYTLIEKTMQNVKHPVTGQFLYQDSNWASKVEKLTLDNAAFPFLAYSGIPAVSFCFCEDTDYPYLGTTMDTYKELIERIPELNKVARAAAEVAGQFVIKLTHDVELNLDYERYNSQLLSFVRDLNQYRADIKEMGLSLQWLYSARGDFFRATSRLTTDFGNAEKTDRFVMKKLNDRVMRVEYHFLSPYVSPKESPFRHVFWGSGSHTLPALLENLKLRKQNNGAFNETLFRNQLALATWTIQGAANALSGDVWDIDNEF
T2 sequence (Q15120 whole entry): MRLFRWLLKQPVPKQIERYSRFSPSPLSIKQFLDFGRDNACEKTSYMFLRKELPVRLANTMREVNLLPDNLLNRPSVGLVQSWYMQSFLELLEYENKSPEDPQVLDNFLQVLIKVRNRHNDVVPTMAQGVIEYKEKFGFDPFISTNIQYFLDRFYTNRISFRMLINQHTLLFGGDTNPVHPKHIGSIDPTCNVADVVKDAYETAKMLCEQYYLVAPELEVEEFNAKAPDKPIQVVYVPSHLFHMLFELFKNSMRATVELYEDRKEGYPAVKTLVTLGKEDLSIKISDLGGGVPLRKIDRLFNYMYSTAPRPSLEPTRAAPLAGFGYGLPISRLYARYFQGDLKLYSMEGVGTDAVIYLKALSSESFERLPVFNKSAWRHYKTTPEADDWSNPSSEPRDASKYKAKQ

Row | SMILES | fold changes relative to vehicle control ([1]; protein TFRC, HeLa) | fold changes relative to vehicle control ([2]; captured protein PDK3, HeLa) | fold changes relative to vehicle control ([3]; HeLa, protein DDB1) | fold changes relative to vehicle control ([4]; HeLa, protein CARM1) | fold changes relative to vehicle control ([5]; captured protein PHKB, HeLa) | fold changes relative to vehicle control ([6]; protein PSMG2, HeLa) | fold changes relative to vehicle control ([7]; HeLa, protein KLHL21) | fold changes relative to vehicle control ([8]; HeLa, protein PRSS21) | fold changes relative to vehicle control [1] | fold changes relative to vehicle control [2] | fold changes relative to vehicle control [3] | fold changes relative to vehicle control [4] | fold changes relative to vehicle control [5] | fold changes relative to vehicle control [6] | fold changes relative to vehicle control [7] | fold changes relative to vehicle control [8] | fold changes relative to vehicle control ([1]; HeLa, protein TFRC) | fold changes relative to vehicle control ([2]; HeLa, protein PDK3) | fold changes relative to vehicle control ([5]; HeLa, protein PHKB) | fold changes relative to vehicle control ([6]; HeLa, captured protein PSMG2)
1 | Nc1nc2cccc(-c3ccccc3)c2n1Cc1ccc(Cl)c(Cl)c1 [compound 3] | 0.99 | 0.86 | 0.87 | 0.95 | 1.19 | 0.87 | 1.04 | 1.04 |  |  |  |  |  |  |  |  |  |  |  | 
2 | Nc1nc2[nH]cc(CCc3ccc(C(=O)N[C@@H](CCC(=O)O)C(=O)O)cc3)c2c(=O)[nH]1 [PTX, pemetrexed] |  |  |  |  |  |  |  |  | 1.01 | 0.9 | 0.9 | 0.9 | 1.02 | 0.97 | 0.95 | 0.89 |  |  |  | 
3 | Nc1nc2c(c(=O)[nH]1)N(C=O)C(CNc1ccc(C(=O)N[C@@H](CCC(=O)O)C(=O)O)cc1)CN2 (some centres unmarked) [LEU, leucovorin] |  |  | 0.95 | 0.95 |  |  | 1.02 | 1 |  |  |  |  |  |  |  |  | 0.94 | 0.93 | 1 | 1.05
4 | CCCCCCOc1cccc(Cc2cnc(N)nc2N)c1 [compound 2] | 1.96 | 0.49 | 1.05 | 0.98 | 1.09 | 1.03 | 1.01 | 1.18 |  |  |  |  |  |  |  |  |  |  |  | 
5 | NCCOCCOCC(=O)Nc1nc2ncc(CNc3ccc(C(=O)NC(CCC(=O)O)C(=O)O)cc3)nc2c(=O)[nH]1 (centres unmarked) [compound 6] |  |  | 0.99 | 0.89 |  |  | 1 | 0.96 |  |  |  |  |  |  |  |  | 1.09 | 0.87 | 1.04 | 1
6 | CCCCCCOc1ccc(Cc2cnc(N)nc2N)cc1 [compound 1] | 1.26 | 1 | 0.9 | 1.02 | 0.86 | 1 | 1.06 | 1.11 |  |  |  |  |  |  |  |  |  |  |  | 
7 | NCCCNc1ccc(C(=O)NC(CCC(=O)O)C(=O)O)cc1 (centres unmarked) [compound 7] |  |  | 0.96 | 1 |  |  | 0.97 | 0.97 |  |  |  |  |  |  |  |  | 0.87 | 0.99 | 1.08 | 0.98

Reference: publication PMC6199744, “Development of Chemical Proteomics for the Folateome and Analysis of the Kinetoplastid Folateome” (ACS Infectious Diseases, 2018)
